Results reported in US7678773B2, “Salts of avermectins substituted in the 4″-position and having pesticidal properties” (Merial Limited, priority 2001, dated 2010).
Where two headings read alike, the source gives them in different places.

Experiments:
Assay type in all cases: in vivo
[1] = system: Diabrotica balteata; test: Example B6: Action against Diabrotica balteata (sprayed maize seedlings); settings: 144 h, read-out: reduction in the pest population (% activity)
Procedure: Maize seedlings are sprayed with an aqueous emulsion spray mixture comprising 12.5 ppm of the test compound and, after the spray-coating has dried, the maize seedlings are populated with 10 Diabrotica balteata larvae in the second stage and then placed in a plastics container. 6 days later, the percentage reduction in population (% activity) is determined by comparing the number of dead larvae on the treated plants with that on untreated plants.

[2] = system: Tetranychus urticae; test: Example B7: Action against Tetranychus urticae (sprayed bean plants); settings: 144 h, read-out: reduction in the pest population (% activity)
Procedure: Young bean plants are populated with a mixed population of Tetranychus urticae and sprayed one day later with an aqueous emulsion spray mixture comprising 12.5 ppm of test compound. The plants are incubated for 6 days at 25° C. and subsequently evaluated. The percentage reduction in population (% activity) is determined by comparing the number of dead eggs, larvae and adults on the treated plants with that on untreated plants.

[3] = system: Plutella xylostella; test: Example B4: Action against Plutella xylostella caterpillars (sprayed cabbage plants); settings: 72 h, read-out: reduction in the pest population (% activity)
Procedure: Young cabbage plants are sprayed with an aqueous emulsion spray mixture comprising 12.5 ppm of test compound. After the spray-coating has dried, the cabbage plants are populated with 10 caterpillars of Plutella xylostella in the first stage and placed in a plastics container. Evaluation is made 3 days later. The percentage reduction in population and the percentage reduction in feeding damage (% activity) are determined by comparing the number of dead caterpillars and the feeding damage on the treated plants with that on the untreated plants.

[4] = system: Spodoptera littoralis; test: Example B1: Action against Spodoptera littoralis (sprayed soybean plants); settings: 72 h, read-out: reduction in the pest population (% activity)
Procedure: Young soybean plants are sprayed with an aqueous emulsion spray mixture comprising 12.5 ppm of test compound and, after the spray-coating has dried, the plants are populated with 10 caterpillars of Spodoptera littoralis in the first stage and then placed in a plastics container. 3 days later, the percentage reduction in population and the percentage reduction in feeding damage (% activity) are determined by comparing the number of dead caterpillars and the feeding damage on the treated plants with that on untreated plants.

[5] = 12.5 ppm spray on maize seedlings, second-stage larvae, evaluated 6 days later
[6] = 12.5 ppm spray on young bean plants, mixed population, 6 days at 25° C.
[7] = 12.5 ppm spray on young cabbage plants, first-stage caterpillars, evaluated 3 days later
[8] = 12.5 ppm spray on young soybean plants, first-stage caterpillars, evaluated 3 days later vs untreated plants

Measured: inhibition at 12.5 ppm

O=C(O)c1ccc(O)cc1O [B.82, 2,4-dihydroxy-benzoic acid]
> 80%: [1]; [5] | [2]; [6] | [3]; [7] | [4]; [8]

Cc1ccc(C)c(C(=O)O)c1 [B.44, 2,5-dimethyl-benzoic acid]
> 80%: [1]; [5] | [2]; [6] | [3]; [7] | [4]; [8]

O=C(O)c1ccccc1-c1ccccc1 [B.11, 2-phenyl-benzoic acid]
> 80%: [1]; [5] | [2]; [6] | [3]; [7] | [4]; [8]

CC(C)(C)c1ccc(C(=O)O)cc1 [B.71, 4-tert-butyl-benzoic acid]
> 80%: [1]; [5] | [2]; [6] | [3]; [7] | [4]; [8]

Cc1ccc(C(=O)O)cc1 [B.32, p-toluic acid]
> 80%: [1]; [5] | [2]; [6] | [3]; [7] | [4]; [8]

O=C(O)CCCOc1ccccc1 [B.70, 4-phenoxy-butyric acid]
> 80%: [1] | [2] | [3] | [4]

O=C(O)c1cccc(F)c1 [B.41, 3-fluoro-benzoic acid]
> 80%: [1]; [5] | [2]; [6] | [3]; [7] | [4]; [8]
